Measurements reported in patent publication US6562850B1, “Methods of synthesizing sultams and anti-viral compositions” (The University of Tennessee Research Corporation, priority 1998, dated 2003).

How the values were obtained:
HIV-1 = experiment: anti-HIV-1 activity, National Cancer Institute (Weislow) protocol; type: cell-based; conditions: for IC50: IC50 beside EC50 and TI50 (not further defined in the patent); for Act.: activity class as per the NCI protocol
[1] = Human immunodeficiency virus 1, NCI Weislow protocol

Molecule	IC50 (HIV-1; [1]) [µM]	Act. (HIV-1)	melting point [°C]	IC50 (HIV-1; NCI Weislow protocol) [µM]	TI50 (HIV-1; NCI Weislow protocol, therapeutic index column)	EC50 (HIV-1; anti-HIV-1 activity, NCI Weislow protocol) [µM]
CN1[C@@H](c2ccc(O)cc2)c2ccccc2S1(=O)=O [Compound 21, (+)-4-[(3S)-2-Methyl-1,1-dioxo-2,3-dihydrobenzo[d]isothiazol-3-yl]phenol]	> 200	I	178 to 180	–	–	–
CN1[C@H](c2ccc(O)cc2)c2ccccc2S1(=O)=O [Compound 22, (−)-4-[(3R)-2-Methyl-1,1-dioxo-2,3-dihydrobenzo-[d]-isothiazol-3-yl]phenol]	> 200	I	178 to 179	–	–	–
(R,S)-2,5-Dimethyl-3-phenyl-2,3-dihydrobenzo[d]isothiazole 1,1-dioxide [Compound 47]	–	–	–	156	5.03	31
(R,S)-4-(2-Methyl-1,1-dioxo-2,3-dihydrobenzo[d]isothiazol-3-yl)phenol [Compound 20]	–	I	–	> 200	–	–
